A value given as a limit tells only on which side of the number the result lay.

A short description of series [1]: Lipophilicity, log D of the compound in phosphate buffer at ph 7.4. Format: physicochemical.
Another series deals with Liver. Briefly: Drug uptake in Sprague-Dawley rat liver at 1.0 to 1.2 mCi, iv after 90 mins by PET-CT scan in presence of non radiolabeled ligand EMPA. Format: ADME, organism-based. As to conditions: in vivo, 1.5 h; call rule not given here.
Series [2] is described as follows: Drug uptake in baboon blood at 4.49 mCi by PET-MR imaging analysis. Format: ADME. As to conditions: papio anubis.
The test system of the next series is Kidney. Briefly: Drug uptake in Sprague-Dawley rat kidney at 1.0 to 1.2 mCi, iv after 90 mins by PET-CT scan in presence of non radiolabeled ligand EMPA. Format: ADME, organism-based. Conditions: in vivo, 1.5 h.
Series [3] deals with Brain. The series can be described thus: Drug uptake in Sprague-Dawley rat brain at 1.0 to 1.2 mCi, iv after 60 mins by PET-CT scan in presence of non radiolabeled ligand EMPA. Conditions: in vivo, 1 h. Type of series: ADME, organism-based.
Series [4] concerns Brain. Briefly: Drug uptake in baboon brain at 4.49 mCi after 80 mins by PET-MR imaging analysis. Format: ADME. As to conditions: papio anubis, in vivo.
A short description of series [5]: Fraction unbound in baboon plasma after 10 mins. Type of series: ADME, cell-free. As to conditions: papio anubis.
Series [6] in a line: Ratio of drug level in brain to plasma of ip dosed mouse after 45 mins. Format: ADME, organism-based. Conditions: read-out: BPR.
In series [7] the target is T1, Orexin receptor type 2 (Rattus norvegicus) (UniProt P56719).
T1 sequence (whole entry): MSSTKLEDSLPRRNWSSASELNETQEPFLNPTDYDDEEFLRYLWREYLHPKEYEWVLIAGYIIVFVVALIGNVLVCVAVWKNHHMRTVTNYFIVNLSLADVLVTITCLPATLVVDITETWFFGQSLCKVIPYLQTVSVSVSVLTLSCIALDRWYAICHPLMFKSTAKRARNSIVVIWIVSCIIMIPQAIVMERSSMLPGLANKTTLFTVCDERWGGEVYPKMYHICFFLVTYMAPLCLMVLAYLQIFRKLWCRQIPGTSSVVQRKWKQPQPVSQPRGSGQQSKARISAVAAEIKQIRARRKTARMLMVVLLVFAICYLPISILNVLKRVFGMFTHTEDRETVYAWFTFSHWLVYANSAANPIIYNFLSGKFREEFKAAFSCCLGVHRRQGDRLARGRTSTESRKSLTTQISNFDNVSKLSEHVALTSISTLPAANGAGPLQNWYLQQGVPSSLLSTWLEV
Briefly: Binding affinity to rat brain OX2 receptor assessed per mg of protein.

Compound `CCN(Cc1cccnc1)C(=O)CN(c1ccc(O[11CH3])nc1)S(=O)(=O)c1ccccc1C` came in with a logD in [1] of 1.94. Moreover, the Drug uptake result in the series on Liver is “Active”; in [2], “Active”; in the series on Kidney, “Active”; with Brain [3] it was less than 0.1%; in the series with Brain [4], less than 0.01%. The compound also had a fraction unbound at 10 min in [5] of 0.113.
Regarding `[3H]c1ccc(CN(CC)C(=O)CN(c2ccc(OC([3H])([3H])[3H])nc2)S(=O)(=O)c2ccccc2C)cn1`, the Kp at 0.75 h in [6] was 0.7.
In turn, `CCN(Cc1cccnc1)C(=O)CN(c1ccc(OC)nc1)S(=O)(=O)c1ccccc1C` yielded a Bmax in series [7] of 6.62 pmol.

These data come from ChEMBL document CHEMBL2384932, “Radiosynthesis and evaluation of [11C]EMPA as a potential PET tracer for orexin 2 receptors” (Bioorg Med Chem Lett, 2013).
